Measurements taken from US9464117B2, “Herbicide-resistant proteins, encoding genes, and uses thereof” (Beijing Dabeinong Technology Group Co., Ltd., priority 2012, dated 2016).

Legend:
Assay type in all cases: in vivo
[1] = system: maize plants containing 24DT07 truncated nucleotide sequence; experiment: Herbicide-resistance effect test of the transgenic corn plants (prop root development); details: 8960 g ae/ha sprayed, 21 days after spraying
Protocol: (§1) Herbicide resistance effects tests to 2,4-D dimethyl ammonium salt and agroxone of maize plants containing 24DT07 nucleotide sequence, 24DT07 substituted nucleotide sequence, 24DT07 truncated nucleotide sequence, 24DT07 added nucleotide sequence, control nucleotide sequence respectively and wild type maize plants (stages V3-V4) were performed respectively.
(§2) Maize plants containing 24DT07 nucleotide sequence, 24DT07 substituted nucleotide sequence, 24DT07 truncated nucleotide sequence, 24DT07 added nucleotide sequence, control nucleotide sequence respectively and wild type maize plants were taken and spayed with 2,4-D dimethyl ammonium salt (8960 g ae/ha, 16-folds concentration in field), agroxone (8960 g ae/ha, 16-folds concentration in field) and blank solvent (water) respectively. Prop root development was counted 21 days after spaying. Three strains (S1, S2, and S3) of corn plants transfected with 24DT07 nucleotide sequence, two strains (S4 and S5) of corn plants transfected with 24DT07 substituted nucleotide sequence, two strains (S6 and S7) of corn plants transfected with 24DT07 truncated nucleotide sequence, two strains (S8 and S9) of corn plants transfected with 24DT07 added nucleotide sequence, two strains (S10 and S11) of corn plants transfected with control nucleotide sequence and 1 strain of wild type (CK) corn were selected and 10-15 plants from each stain were tested.

[2] = system: maize plants containing 24DT07 nucleotide sequence; experiment: as above; details: comparison of the four 24DT07 genotypes; 8960 g ae/ha
Protocol: as §1, §2

[3] = system: Arabidopsis T1 plants transformed with 24DT07 nucleotide sequence; experiment: Herbicide resistance effect test of transgenic Arabidopsis T1 plants; details: for differences of resistance levels between Arabidopsis T1 plants transformed with 24DT07, substituted, truncated and added 24DT07 nucleotide sequence: comparison of the four 24DT07 genotypes, 560 g ae/ha; for Highly resistant: 560 g ae/ha sprayed (1-fold field concentration), number of plants with growth consistent with blank solvent 7 days after spraying; for Non-resistant: number of dead plants 14 days after spraying
Description: (§3) 24DT07 gene was used to transform Arabidopsis for the first time. At first, T1 transformants were selected from the background of un-transformed seeds, using glufosinate-ammonium selection scheme. About 40000 T1 seeds are screened among which 195 strains of T1 generation positive transformants (PAT gene) were identified, i.e. the transformation efficiency was about 0.5%. Herbicide resistance effect tests to 2,4-D dimethyl ammonium salt and agroxone of Arabidopsis T1 plants transformed with 24DT07 nucleotide sequence, substituted 24DT07 nucleotide sequence, truncated 24DT07 nucleotide sequence, added 24DT07 nucleotide sequence, control nucleotide sequence respectively and wild-type Arabidopsis plants were performed after 18 days of planting.
(§4) Arabidopsis T1 plants transformed with 24DT07 nucleotide sequence, substituted 24DT07 nucleotide sequence, truncated 24DT07 nucleotide sequence, added 24DT07 nucleotide sequence and control nucleotide sequence respectively and wild-type Arabidopsis plants were sprayed with 2,4-D dimethyl ammonium salt (560 g ae/ha, 1-fold concentration in field), agroxone (560 g ae/ha, 1-fold concentration in field) and blank solvent (water). Resistance conditions of the plants were counted 7 days and 14 days after spraying. Plants with growth conditions consistent with blank solvent (water) 7 days after spaying were classified as highly resistant plants; Plants with curly rosette leaves 7 days after spaying were classified as moderately resistant plants; Plants incapable of bolting 14 days after spaying were classified as low-resistant plants and the dead plants 14 days after spaying were classified as non-resistant plants. Because each Arabidopsis T1 plant is an independent transformation event, significant differences of individual T1 responses can be expected under a given dose.

[4] = system: Arabidopsis T1 plants transformed with truncated 24DT07 nucleotide sequence; experiment: as above; details: genotype 24DT07-t; for Highly resistant: 560 g ae/ha sprayed (1-fold field concentration), number of plants with growth consistent with blank solvent 7 days after spraying; for Non-resistant: 560 g ae/ha sprayed, number of dead plants 14 days after spraying
Description: as §3, §4

[5] = system: Arabidopsis T1 plants transformed with substituted 24DT07 nucleotide sequence; experiment: as above; details: genotype 24DT07-i; for Highly resistant: 560 g ae/ha sprayed (1-fold field concentration), number of plants with growth consistent with blank solvent 7 days after spraying; for Non-resistant: 560 g ae/ha sprayed, number of dead plants 14 days after spraying
Description: as §3, §4

[6] = system: Arabidopsis T1 plants transformed with added 24DT07 nucleotide sequence; experiment: as above; details: genotype 24DT07-a; for Highly resistant: 560 g ae/ha sprayed (1-fold field concentration), number of plants with growth consistent with blank solvent 7 days after spraying; for Non-resistant: 560 g ae/ha sprayed, number of dead plants 14 days after spraying
Description: as §3, §4

[7] = system: maize plants containing 24DT07 substituted nucleotide sequence; experiment: Herbicide-resistance effect test of the transgenic corn plants (prop root development); details: corn strain S5 (24DT07 substituted); 8960 g ae/ha sprayed; 21 days after spraying
Protocol: as §1, §2

[8] = corn strain S7 (24DT07 truncated)
[9] = genotype 24DT07, 560 g ae/ha sprayed

Structure (SMILES) | Ratio of the normally developed prop roots ([1]; corn strain S6 (24DT07 truncated)) [%] | Ratio of the normally developed prop roots [1, 8] [%] | differences of resistance levels between corn plants transformed with 24DT07, substituted, truncated and added 24DT07 nucleotide sequence [2] | differences of resistance levels between Arabidopsis T1 plants transformed with 24DT07, substituted, truncated and added 24DT07 nucleotide sequence [3] | Highly resistant ([3]; genotype 24DT07) | Non-resistant [3, 9] | Highly resistant [4] | Non-resistant [4] | Highly resistant [5] | Non-resistant [5] | Highly resistant [6] | Non-resistant [6] | Ratio of the normally developed prop roots [7] [%] | Moderately resistant ([3]; genotype 24DT07, 560 g ae/ha sprayed, number of plants with curly rosette leaves 7 days after spraying)
CNC.O=C(O)COc1ccc(Cl)cc1Cl [2,4-D dimethyl ammonium salt] | 92.31 | 93.33 | didn't show significant differences | didn't show significant differences | 20 | 0 | 16 | 0 | 18 | 0 | 17 | 0 |  | 
Cc1cc(Cl)ccc1OCC(=O)O [agroxone] |  | 91.67 | didn't show significant differences | didn't show significant differences | 19 | 0 | 18 | 0 | 17 | 0 | 15 | 0 | 92.86 | 3
